In the test the target is T1, mutant B-RAF (Homo sapiens, UniProt P15056, V600E).
T1 construct: purchased Upstate (Charlottesville, Va.)
The test is described as follows: RAF biochemical assay (MEK-1 phosphorylation, anti-phospho MEK1/2 detection). The following applies: for inhibition at 10 µM: read-out: Mutant B-RAF % inhibition; for IC50: read-out: Mutant B-RAF IC50. The method in brief:
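Detection is by ELISA: after a 30 min room-temperature reaction, plate-captured GST-MEK-1 is probed with anti-phospho MEK1/2, then an AP-tagged secondary antibody with fluorescent Attophos read-out.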

Consider 31 compounds from patent US7501430B2 (ArQule, Inc., priority 2006, dated 2009).

T1 sequence (P15056 whole entry V600E): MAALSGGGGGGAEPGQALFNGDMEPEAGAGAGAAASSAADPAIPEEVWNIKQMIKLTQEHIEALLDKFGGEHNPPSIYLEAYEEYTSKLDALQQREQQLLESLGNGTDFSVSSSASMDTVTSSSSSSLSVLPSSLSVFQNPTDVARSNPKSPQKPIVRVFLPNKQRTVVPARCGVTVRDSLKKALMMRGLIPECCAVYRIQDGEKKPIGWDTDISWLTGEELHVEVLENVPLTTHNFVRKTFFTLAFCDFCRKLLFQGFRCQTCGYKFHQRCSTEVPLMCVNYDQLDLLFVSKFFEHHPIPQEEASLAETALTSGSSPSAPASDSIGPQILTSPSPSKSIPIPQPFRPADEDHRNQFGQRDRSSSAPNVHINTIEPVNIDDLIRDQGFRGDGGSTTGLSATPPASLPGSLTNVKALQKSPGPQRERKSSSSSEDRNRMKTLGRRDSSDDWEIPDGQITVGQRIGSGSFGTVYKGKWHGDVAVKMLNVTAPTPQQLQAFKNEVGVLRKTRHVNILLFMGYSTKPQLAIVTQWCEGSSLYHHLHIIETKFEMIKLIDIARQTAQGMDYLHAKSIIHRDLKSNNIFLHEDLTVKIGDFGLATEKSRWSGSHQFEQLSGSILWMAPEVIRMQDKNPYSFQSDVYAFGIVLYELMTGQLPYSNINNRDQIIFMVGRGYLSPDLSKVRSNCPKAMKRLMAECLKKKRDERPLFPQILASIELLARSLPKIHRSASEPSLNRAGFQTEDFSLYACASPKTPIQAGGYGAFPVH

Consider `Fc1ccc(-c2nc3occn3c2-c2ccnc(NC3CCNCC3)n2)c(Cl)c1` [Example 301, 4-[6-(2-chloro-4-fluorophenyl)imidazo[2,1-b][1,3]oxazol-5-yl]-N-piperidin-4-ylpyrimidin-2-amine], for which the inhibition at 10 µM is 39%. The same measure, in the same setting: to `CC(=O)N1CCC(Nc2nccc(-c3c(-c4ccccc4Cl)nc4occn34)n2)CC1` [Example 302, N-(1-acetylpiperidin-4-yl)-4-[6-(2-chlorophenyl)imidazo[2,1-b][1,3]oxazol-5-yl]pyrimidin-2-amine] belongs 39%; to `CC(=O)N1CCC(Nc2nccc(-c3c(-c4ccccc4C)nc4occn34)n2)CC1` [Example 303, N-(1-acetylpiperidin-4-yl)-4-[6-(2-methylphenyl)imidazo[2,1-b][1,3]oxazol-5-yl]pyrimidin-2-amine], 42%. As to `Cc1ccccc1-c1nc2occn2c1-c1ccnc(NC2CCNCC2)n1` [Example 304, 4-[6-(2-methylphenyl)imidazo[2,1-b][1,3]oxazol-5-yl]-N-piperidin-4-ylpyrimidin-2-amine], the inhibition at 10 µM was found to be 56%.

Regarding `CC(=O)N1CCC(Nc2nccc(-c3c(-c4ccc(F)cc4Cl)nc4occn34)n2)CC1` [Example 305, N-(1-acetylpiperidin-4-yl)-4-[6-(2-chloro-4-fluorophenyl)imidazo[2,1-b][1,3]oxazol-5-yl]pyrimidin-2-amine], the inhibition at 10 µM worked out at 47%. Still for that read-out and setting: the value for `FC(F)(F)c1cccc(-c2nc3occn3c2-c2ccnc(NC3CCNCC3)n2)c1` [Example 306, N-piperidin-4-yl-4-{6-[3-(trifluoromethyl)phenyl]imidazo[2,b][1,3]oxazol-5-yl}pyrimidin-2-amine] was 32%; that for `Clc1ccccc1-c1nc2occn2c1-c1ccnc(NC2CCNCC2)n1` [Example 307, 4-[6-(2-chlorophenyl)imidazo[2,1-b][1,3]oxazol-5-yl]-N-piperidin-4-ylpyrimidin-2-amine] was 55%. The same measure, in the same setting: to `Cc1ccccc1-c1nc2occn2c1-c1ccnc(NC2CCN(S(C)(=O)=O)CC2)n1` [Example 308, 4-[6-(2-methylphenyl)imidazo[2,1-b][1,3]oxazol-5-yl]-N-(1-(methylsulfonyl)piperidin-4-yl]pyrimidin-2-amine] belongs 45%.

`CS(=O)(=O)N1CCC(Nc2nccc(-c3c(-c4cccc(C(F)(F)F)c4)nc4occn34)n2)CC1` [Example 309, N-[1-(methylsulfonyl)piperidin-4-yl]-4-{6-(3-(trifluoromethyl)phenyl]imidazo[2,b][1,3]oxazol-5-yl)pyrimidin-2-amine]: the inhibition at 10 µM was 33%. For `CC(=O)N1CCC(Nc2nccc(-c3c(-c4ccc(F)cc4F)nc4occn34)n2)CC1` [Example 310, N-(1-acetylpiperidin-4-yl)-4-[6-(2,4-difluorophenyl)imidazo[2,1-b][1,3]oxazol-5-yl]pyrimidin-2-amine], the inhibition at 10 µM came out at 33%.

Regarding `CS(=O)(=O)N1CCC(Nc2nccc(-c3c(-c4ccccc4Cl)nc4occn34)n2)CC1` [Example 311, 4-[6-(2-chlorophenyl)imidazo[2,1-b][1,3]oxazol-5-yl]-N-[1-(methylsulfonyl)piperidin-4-yl]pyrimidin-2-amine], the inhibition at 10 µM was determined as 61%. The same measure, in the same setting: to `CS(=O)(=O)N1CCC(Nc2nccc(-c3c(-c4ccc(F)cc4Cl)nc4occn34)n2)CC1` [Example 312, 4-[6-(2-chloro-4-fluorophenyl)imidazo[2,1-b][1,3]oxazol-5-yl]-N-[1-(methylsulfonyl)piperidin-4-yl]pyrimidin-2-amine] belongs 73%. In the case of `COC(=O)c1ccc(S(=O)(=O)N2CCC[C@@H](Nc3nccc(-c4c(-c5cccc(O)c5)nc5sccn45)n3)C2)cc1` [Example 314, methyl 4-{[(3R)-3-({4-[6-(3-hydroxyphenyl)imidazo[2,1-b][1,3]thiazol-5-yl]pyrimidin-2-yl}amino)piperidin-1-yl]sulfonyl}benzoate], the IC50 is 30 nM.

Take `O=S(=O)(C1CC1)N1CCC(Nc2nccc(-c3c(-c4cccc(O)c4)nc4sccn34)n2)CC1` [Example 315, 3-[5-(2-{[1-(cyclopropylsulfonyl)piperidin-4-yl]amino}pyrimidin-4-yl)imidazo[2,1-b][1,3]thiazol-6-yl}phenol]: the IC50 came to 11 nM. With `N#Cc1ccc(S(=O)(=O)N2CCC(Nc3nccc(-c4c(-c5cccc(O)c5)nc5occn45)n3)CC2)cc1` [Example 317, 4-{[4-({4-[6-(3-hydroxyphenyl)imidazo[2,1-b][1,3]oxazol-5-yl]pyrimidin-2-yl}amino)piperidin-1-yl]sulfonyl}benzonitrile], the IC50 amounted to 22 nM. Same read-out and setting: the value for `Oc1cccc(-c2nc3sccn3c2-c2ccnc(NC3CCN(CC(O)COc4ccc(Cl)cc4)CC3)n2)c1` (stereo not shown) [Example 318, 3-{5-[2-({1-[3-(4-chlorophenoxy)-2-hydroxypropyl]piperidin-4-yl}amino)pyrimidin-4-yl]imidazo[2,1-b][1,3]thiazol-6-yl}phenol] was 422 nM; that for `NC(=O)c1ccc(S(=O)(=O)N2CCC(Nc3nccc(-c4c(-c5cccc(O)c5)nc5occn45)n3)CC2)cc1` [Example 319, 4-{[4-({4-[6-(3-hydroxyphenyl)imidazo[2,1-b][1,3]oxazol-5-yl]pyrimidin-2-yl}amino)piperidin-1-yl]sulfonyl)benzamide] was 18 nM; that for `O=S(=O)(c1ccc(Cl)cc1)N1CCC(Nc2nccc(-c3c(-c4cccc(O)c4)nc4occn34)n2)CC1` [Example 321, 3-{5-[2-({1-[(4-chlorophenyl)sulfonyl]piperidin-4-yl}amino)pyrimidin-4-yl]imidazo[2,1-b][1,3]oxazol-6-yl}phenol] was 126 nM. Same read-out and setting: the value for `O=C(NS(=O)(=O)c1ccc(Cl)cc1)N1CCC(Nc2nccc(-c3c(-c4cccc(O)c4)nc4occn34)n2)CC1` [Example 323, N-[(4-chlorophenyl)sulfonyl]-4-({4-[6-(3-hydroxyphenyl)imidazo[2,1-b][1,3]oxazol-5-yl]pyrimidin-2-yl}amino)piperidine-1-carboxamide] was 1220 nM; that for `COc1cccc(-c2nc3occn3c2-c2ccnc(NC3CCN(C(=O)NS(=O)(=O)c4ccc(Cl)cc4)CC3)n2)c1` [Example 324, N-[(4-chlorophenyl)sulfonyl]-4-({4-[6-(3-methoxyphenyl)imidazo[2,1-b][1,3]oxazol-5-yl]pyrimidin-2-yl}amino)piperidine-1-carboxamide] was 4000 nM; that for `COc1cccc(-c2nc3sccn3c2-c2ccnc(N[C@@H]3CCCN(S(=O)(=O)C4CC4)C3)n2)c1` [Example 325, N-[(3R)-1-(cyclopropylsulfonyl)piperidin-3-yl]-4-[6-(3-methoxyphenyl)imidazo[2,1-b][1,3]thiazol-5-yl]pyrimidin-2-amine] was 4000 nM. In the case of `COc1cccc(-c2nc3sccn3c2-c2ccnc(NC3CCN(S(C)(=O)=O)CC3)n2)c1` [Example 326, 4-[6-(3-methoxyphenyl)imidazo[2,1-b][1,3]thiazol-5-yl]-N-[1-(methylsulfonyl)piperidin-4-yl]pyrimidin-2-amine], the concentration for half-maximal inhibition (IC50) was 4000 nM. The same measure, in the same setting: to `COc1cccc(-c2nc3sccn3c2-c2ccnc(N[C@@H]3CCCN(C(=O)Nc4ccc(F)cc4)C3)n2)c1` [Example 327, (3R)-N-(4-fluorophenyl)-3-({4-[6-(3-methoxyphenyl)imidazo[2,1-b][1,3]thiazol-5-yl]pyrimidin-2-yl}amino)piperidine-1-carboxamide] belongs 4000 nM. Still for that read-out and setting: the value for `COc1cccc(-c2nc3sccn3c2-c2ccnc(N[C@@H]3CCCN(C(=O)NC4CCCCC4)C3)n2)c1` [Example 328, (3R)-N-cyclohexyl-3-({4-[6-(3-methoxyphenyl)imidazo[2,1-b][1,3]thiazol-5-yl]pyrimidin-2-yl}amino)piperidine-1-carboxamide] was 4000 nM. Still for that read-out and setting: the value for `CCOc1ccc(NC(=O)N2CCC[C@@H](Nc3nccc(-c4c(-c5cccc(OC)c5)nc5sccn45)n3)C2)cc1` [Example 329, (3R)-N-(4-ethoxyphenyl)-3-({4-[6-(3-methoxyphenyl)imidazo[2,1-b][1,3]thiazol-5-yl]pyri-midin-2-yl}amino)piperidine-1-carboxamide] was 4000 nM; that for `COc1cccc(-c2nc3sccn3c2-c2ccnc(N[C@@H]3CCCN(C(=O)Nc4ccc(SC)cc4)C3)n2)c1` [Example 330, (3R)-3-({4-[6-(3-methoxyphenyl)imidazo[2,1-b][1,3]thiazol-5-yl]pyrimidin-2-yl}amino)-N-[4-(methylthio)phenyl]piperidine-1-carboxamide] was 4000 nM; that for `Oc1cccc(-c2nc3sccn3c2-c2ccnc(N[C@@H]3CCCN(CC(O)COc4ccc(Cl)cc4)C3)n2)c1` (stereo partly drawn) [Example 331, 3-{5-[2-({(3R)-1-[3-(4-chlorophenoxy)-2-hydroxypropyl]piperidin-3-yl}amino)pyrimidin-4-yl]imidazo[2,1-b][1,3]thiazol-6-yl}phenol] was 1040 nM. For `CS(=O)(=O)N1CCC(Nc2nccc(-c3c(-c4cccc(O)c4)nc4sccn34)n2)CC1` [Example 332, 3-[5-(2-{[1-(methylsulfonyl)piperidin-4-yl]amino}pyrimidin-4-yl)imidazo[2,1-b][1,3]thiazol-6-yl}phenol], the IC50 turned out to be 10 nM. As for `Oc1cccc(-c2nc3occn3c2-c2ccnc(N[C@@H]3CCCNC3)n2)c1` [Example 333, 3-(5-{2-[(3R)-piperidin-3-ylamino]pyrimidin-4-yl}imidazo[2,1-b][1,3]oxazol-6-yl}phenol], the IC50 came out at 906 nM. Turning to `CC(C)NC(=O)N1CCC[C@@H](Nc2nccc(-c3c(-c4cccc(O)c4)nc4sccn34)n2)C1` [Example 334, (3R)-3-({4-[6-(3-hydroxyphenyl)imidazo[2,1-b][1,3]thiazol-5-yl]pyrimidin-2-yl}amino)-N-isopropylpiperidine-1-carboxamide], the IC50 came out at 650 nM. For the compound `O=C(Nc1ccc(F)cc1)N1CCC[C@@H](Nc2nccc(-c3c(-c4cccc(O)c4)nc4sccn34)n2)C1` [Example 335, (3R)-N-(4-fluorophenyl)-3-({4-[6-(3-hydroxyphenyl)imidazo[2,1-b][1,3]thiazol-5-yl]pyrimidin-2-yl}amino)piperidine-1-carboxamide], the IC50 turned out to be 3260 nM.

One may read the inhibition as the relative decrease from the control value, in per cent. A word on the IC50: it is the concentration at which inhibition is half-maximal.
